SMILES strings stand for the structures.

This assay has as its target T1, TNKS1 (Homo sapiens, UniProt O95271).
T1 sequence (O95271 1-1327): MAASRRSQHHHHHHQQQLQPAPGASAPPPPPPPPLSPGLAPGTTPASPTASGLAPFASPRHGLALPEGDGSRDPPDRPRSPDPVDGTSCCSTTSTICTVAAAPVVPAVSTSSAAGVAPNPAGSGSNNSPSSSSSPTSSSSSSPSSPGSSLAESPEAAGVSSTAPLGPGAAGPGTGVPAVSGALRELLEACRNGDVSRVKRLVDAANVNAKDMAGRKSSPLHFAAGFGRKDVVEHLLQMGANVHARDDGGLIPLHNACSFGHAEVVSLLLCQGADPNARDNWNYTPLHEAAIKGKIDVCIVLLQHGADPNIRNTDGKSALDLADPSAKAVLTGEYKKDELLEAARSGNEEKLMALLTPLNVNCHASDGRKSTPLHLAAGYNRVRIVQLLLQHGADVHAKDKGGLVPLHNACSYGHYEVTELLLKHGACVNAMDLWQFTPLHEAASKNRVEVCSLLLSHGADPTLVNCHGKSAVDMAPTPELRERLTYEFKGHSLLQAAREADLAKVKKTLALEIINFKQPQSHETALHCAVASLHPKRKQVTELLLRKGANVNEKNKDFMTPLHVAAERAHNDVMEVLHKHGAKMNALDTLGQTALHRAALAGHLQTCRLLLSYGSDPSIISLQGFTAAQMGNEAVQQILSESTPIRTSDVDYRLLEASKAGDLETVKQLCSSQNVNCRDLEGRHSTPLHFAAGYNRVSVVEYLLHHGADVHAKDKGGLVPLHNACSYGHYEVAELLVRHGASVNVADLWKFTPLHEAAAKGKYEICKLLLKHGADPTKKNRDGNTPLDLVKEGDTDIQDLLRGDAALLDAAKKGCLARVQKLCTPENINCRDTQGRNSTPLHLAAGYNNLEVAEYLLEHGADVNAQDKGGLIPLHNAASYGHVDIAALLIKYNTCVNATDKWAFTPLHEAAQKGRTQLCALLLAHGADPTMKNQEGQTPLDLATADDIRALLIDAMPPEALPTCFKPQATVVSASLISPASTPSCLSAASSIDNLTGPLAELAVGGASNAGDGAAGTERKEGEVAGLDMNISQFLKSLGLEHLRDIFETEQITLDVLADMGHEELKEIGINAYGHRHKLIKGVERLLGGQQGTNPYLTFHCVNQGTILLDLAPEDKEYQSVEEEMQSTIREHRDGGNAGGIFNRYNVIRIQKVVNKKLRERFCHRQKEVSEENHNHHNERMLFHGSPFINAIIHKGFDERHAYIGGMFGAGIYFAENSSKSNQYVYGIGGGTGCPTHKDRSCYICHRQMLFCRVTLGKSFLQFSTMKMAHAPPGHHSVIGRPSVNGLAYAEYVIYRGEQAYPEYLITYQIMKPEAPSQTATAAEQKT
Briefly: Activity assay measuring NAD+ consumption, TNKS1. The assay is classed as biochemical. Particulars: Table 4. As to the method:
All starting materials, reagents, and solvents were purchased from common commercial suppliers and were used as such without further purification. […] Organic solutions were dried over anhydrous Na2SO4 and concentrated with rotary evaporator at low pressure. All the reactions were routinely checked by thin-layer chromatography (TLC) on silica gel 60F254 (Merck) and visualized by using UV and iodine. Flash chromatography separations were carried out on Merck silica gel 60 (mesh 230-400) or by using automated Buchi Reveleris X2-UV with column FP Ecoflex Si 12 g. Yields were of purified products and were not optimized. ^1HNMR spectra were recorded at 400 MHz (Bruker Avance DRX-400), while ^13CNMR spectra were recorded at 101 MHz (Bruker Avance DRX-400). Chemical shifts are given in ppm (δ) relative to TMS. […] Mating constant (J) are reported in Hz. The purity of the tested compounds was evaluated by HPLC analysis using Jasco LC-4000 instrument equipped with a UV-Visible Diode Array Jasco-MD4015 (Jasco Corporation, Tokyo, Japan), and XTerra MS C18 column, 5 μm×4.6 mm×150 mm (Waters Corporation, Massachusetts, USA). Chromatograms were analyzed by ChromNAV2.0 Chromatography Data System software. […] The peak retention time (ret. time) is given in minutes. […] 1-Isobutoxy-4-methoxy-2-nitrobenzene (113). Isobutyl alcohol (0.6 mL, 6.43 mmol) was added, under nitrogen atmosphere at 0° C., to a suspension of NaH (0.26 g, 6.43 mmol) in dry DMF. After 15 minutes, 1-fluoro-4-methoxy-2-nitrobenzene 112 (1 g, 5.84 mmol) was also added and the reaction mixture was stirred at 80° C. for 4 h. […] (2-Isobutoxy-5-methoxyphenyl)amine (114). Zn (1.57 g, 24 mmol) and NH4C1 (2.45 g, 40 mmol) were added to a solution of 113 (0.46 g, 2 mmol) in acetone/H2O (50 mL, ratio 5:1). The reaction mixture was stirred at 60° C. for 3 h and, then, it was filtered over celite. […] N-(2,5-diethoxyphenyl)thiourea (55). […] N-(2-isobutoxy-5-methoxyphenyl)thiourea (115). […] A solution of Br2 (0.2 mL, 3.3 mmol) in CHCl3 (5 mL) was slowly added to a suspension of 45 (0.6 g, 3.3 mmol) in CHCl3 (13 mL), at 0° C. […]
Consider `COc1ccc(OC)c2c1sc1nnc(N)n12` [Compound 28, 5,8-Dimethoxy[1,2,4]triazolo[3,4-b][1,3]benzothiazol-3-amine], for which the midpoint of inhibition, the IC50, lay at 5.4 µM.
With `Oc1ccc2c(c1)sc1nncn12` [Compound 10], the IC50 (usually the concentration that inhibits the measured activity by half) was 1.6 µM.
Then `Cc1ccc2c(c1)sc1nnc(N)n12` [Compound 22, 7-Methyl[1,2,4]triazolo[3,4-b][1,3]benzothiazol-3-amine], with 2.1 µM.
